Assay results: patent publication US20230084515A1, “THERAPEUTIC METHODS AND COMPOSITIONS FOR TREATING CANCER USING BRAF AND/OR MEK INHIBITOR COMBINATION THERAPY” (Vanderbilt University, priority 2020, published 2023)

Tests used:
SC10 = assay: Proliferation assay (population growth curves, DIP rates) in SKMEL5 subline SC10; type: cell-based, human; conditions: for effect of combination with BRAFi on proliferation (DIP rates): combination with PLX4720 8 μM
Description: The cells are labeled lentivirally with a fluorescent, nuclear tag (Histone 2B monomeric Red Fluorescent Protein, H2BmRFP from AddGene), flow sorted for H2BmRFP positivity (top 10-15% brightest), and fluorescently counted under drug treatments. Cells are seeded into 96 well plates (1-5,000 cells per well) and drug treatments applied the following day, including DMSO or PBS control (all concentrations contained equal percentage of DMSO or PBS solvent). Images are taken every 8-12 hours with sufficient image alignment (montaging) in order to capture about 25-100 cells per well/treatment (over the course of the experiment, cell counts typically exceed 1,000 in DMSO or low drug concentration wells). Direct measurements of cell counts are made using Cellavista software and Image J macros. The images are filtered through these computer programs to track and label each cell, quantifying the number of cells in each time-stamped frame. Proliferation is platted as log2 normalized growth, using the initial cell count from the first image frame for normalization. Dose-response curves are generated using a 2-fold dilution of single drugs at various concentrations ranked highest to zero (zero containing only the solvent the drug was dissolved in, being either DMSO or H2O); all concentrations contained equal volumes of the solvent used. For combinations with PLX4720 (BRAF inhibitor), 8 μM PLX4720 was used as diluent, and serially diluted with the second drug from highest concentration to lowest. The drug-induced proliferation (DIP) rates (see, Harris, L. A., et al. “An unbiased metric of antiproliferative drug effect in vitro,” Nature Methods', 2016, vol. 13, p. 497-500.) are calculated using the slope of the log2-normalized population curves after 24 hrs. BRAF-mutated melanoma cells (SKMEL5, A375, WM793, SKMEL19, SKMEL28, WM164, WM88, A2058) were grown and cultured in Dulbecco's modified Eagle's medium and Ham's F-12 medium (DMEM:F12, 1:1. Cat #11330-032). Media were obtained from Gibco (Grand Island, N.Y.) and supplemented with 10% FBS, All cells were cultured in CO2, temperature-controlled (37° C.), and humidified incubators. Cells were tested for mycoplasma before use and confirmed negative. Cells were passaged 1-2× per week and maintained as exponentially growing cultures for a maximum of less than 2.0 passages. Unless otherwise indicated, cells were seeded 16-24 h prior to treatment to allow cells to adhere to culture plates. Reagents/drugs were prepared in complete medium immediately prior to adding to cells by replacement. PLX4720 (Cat #S1152) and vemurafenib (Cat #S1267) were obtained from Selleckchem (Houston, Tex.) solubilized in dimethyl sulfoxide (DMSO) at a stock concentration of 10 mM. […]

A2058 cells = assay: Proliferation assay (population growth curves, DIP rates) in A2058 cells; type: cell-based, human
Description: The cells are labeled lentivirally with a fluorescent, nuclear tag (Histone 2B monomeric Red Fluorescent Protein, H2BmRFP from AddGene), flow sorted for H2BmRFP positivity (top 10-15% brightest), and fluorescently counted under drug treatments. Cells are seeded into 96 well plates (1-5,000 cells per well) and drug treatments applied the following day, including DMSO or PBS control (all concentrations contained equal percentage of DMSO or PBS solvent). Images are taken every 8-12 hours with sufficient image alignment (montaging) in order to capture about 25-100 cells per well/treatment (over the course of the experiment, cell counts typically exceed 1,000 in DMSO or low drug concentration wells). Direct measurements of cell counts are made using Cellavista software and Image J macros. The images are filtered through these computer programs to track and label each cell, quantifying the number of cells in each time-stamped frame. Proliferation is platted as log2 normalized growth, using the initial cell count from the first image frame for normalization. […] The drug-induced proliferation (DIP) rates (see, Harris, L. A., et al. “An unbiased metric of antiproliferative drug effect in vitro,” Nature Methods', 2016, vol. 13, p. 497-500.) are calculated using the slope of the log2-normalized population curves after 24 hrs. […]

COc1cc(C(C)=O)ccc1O [Apocynin]
effect of combination with BRAFi on proliferation (DIP rates) (SC10): synergism

c1ccc2c(c1)[I+]c1ccccc1-2 [DPI, Diphenyleneiodonium chloride]
effect of combination with BRAFi on proliferation (DIP rates) (A2058 cells; DPI 250 nM, BRAFi 8 μM, FIG. 6A): enhancement of NOX-inhibition on the anti-proliferative effects of BRAF-inhibition | effect of combination with BRAFi on proliferation (DIP rates) (SC10): synergism

CN(C)c1cccc(-c2c3c(=O)n(-c4ccccc4Cl)[nH]c3cc(=O)n2C)c1 [GKT137831]
effect of combination with BRAFi on proliferation (DIP rates) (SC10): synergism

CCCS(=O)(=O)Nc1ccc(F)c(C(=O)c2c[nH]c3ncc(Cl)cc23)c1F [PLX4720]
DIP rates under BRAF-inhibition (A2058 cells): positive DIP rates | DIP rates under BRAF-inhibition (SC10): positive DIP rates
